The values below come from patent publication US20130252890A1, “6,7-DIHYDRO-5H-BENZO[7]ANNULENE DERIVATIVES, PROCESS FOR PREPARATION THEREOF, PHARMACEUTICAL PREPARATIONS COMPRISING THEM, AND THE USE THEREOF FOR PRODUCTION OF MEDICAMENTS” (BAYER INTELLECTUAL PROPERTY GMBH, priority 2010, published 2013).

One assay has as its system uterus. Put plainly: Anti-uterus growth test in the adult rat. To be noted: sc, 72 h; ovariectomized adult rat, s.c. 3 days with 1.5 μg/kg/day 17β-estradiol; inhibition of uterus growth; value of 44 is a mean of two measurements; read-out: anti-oestrogenic activity in vivo in % at a dose of 0.3 mg/kg (rat). From the text:
The uterus of oestrogen-substituted rats can be used as a test model for detecting a direct action of substances with anti-oestrogenic properties. The parameter of oestrogenic action is estradiol-induced uterus growth in rats, which is inhibited by simultaneous administration of a substance with anti-oestrogenic action. The experimental animals (n=5-6 animals/group) were ovariectomized before the start of the test, to rule out the influence of endogenous oestrogens. After a phase of 6 to 10 days, the test substances are administered s.c. on 3 consecutive days (d1-d3) in combination with a substitution dose of 1.5 μg/kg/day 17β-estradiol. 17β-estradiol alone serves as positive control, and the excipients serve as negative control. On day 4 (d4) the animals are killed, and the uteri and vaginae are removed and weighed. The organ weights are converted to mg/100 g body weight, then the mean value and the standard deviation are calculated for each dosage. The inhibition of uterus growth induced by 17β-estradiol is shown as percentage inhibition.

In another assay the target is T1, oestrogen receptor (ER) (Homo sapiens, UniProt P03372).
T1 construct: These MVLN cells express, along with the functional oestrogen receptor (ER), a reporter construct; endogenous in cells; host or cells: MVLN cells (MCF7 derivative carrying a luciferase reporter construct)
T1 sequence (P03372 1-595): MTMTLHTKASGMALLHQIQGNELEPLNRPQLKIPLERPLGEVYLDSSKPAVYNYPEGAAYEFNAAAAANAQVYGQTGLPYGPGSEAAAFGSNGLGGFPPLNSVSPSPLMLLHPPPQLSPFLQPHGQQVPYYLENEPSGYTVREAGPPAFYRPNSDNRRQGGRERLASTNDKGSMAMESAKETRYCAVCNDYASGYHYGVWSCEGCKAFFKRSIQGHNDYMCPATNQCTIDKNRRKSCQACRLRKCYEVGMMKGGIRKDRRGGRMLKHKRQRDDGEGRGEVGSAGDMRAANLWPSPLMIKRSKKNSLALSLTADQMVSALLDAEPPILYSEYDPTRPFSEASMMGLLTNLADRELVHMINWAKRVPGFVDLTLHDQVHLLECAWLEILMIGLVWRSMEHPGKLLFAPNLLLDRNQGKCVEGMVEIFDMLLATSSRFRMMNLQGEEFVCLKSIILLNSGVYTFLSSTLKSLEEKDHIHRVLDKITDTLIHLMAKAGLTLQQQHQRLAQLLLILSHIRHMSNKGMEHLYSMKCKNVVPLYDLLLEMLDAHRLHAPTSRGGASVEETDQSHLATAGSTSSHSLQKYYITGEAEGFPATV
Kind of assay: Anti-oestrogenic action in MVLN cells (inhibition of estradiol-induced luciferase). The format is cell-based. To be noted: inhibition of estradiol-induced luciferase signal, value of Ex. 44 is a mean value, read-out: Antioestrogenic action in vitro: MVLN transactivation antagonism IC50. The method, boiled down:
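MVLN cells, MCF7 breast cancer derivatives carrying functional ER plus an ER-activated luciferase reporter, were treated with compounds in the presence of estradiol. Anti-oestrogenic activity taken as inhibition of the estradiol-induced luciferase signal.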

pIC50: −log10 of the molar value.

By pIC50 is commonly meant the negative decadic logarithm of the IC50, by convention in mol/L. Turning to `CN(CCCCCCC1=C(c2cc(F)cc(F)c2)CCCc2cc(O)ccc21)CCCS(=O)(=O)CCCC(F)(F)F` [Example 7, 8-(3,5-Difluorophenyl)-9-[6-(methyl{3-[(4,4,4-trifluorobutyl)sulphonyl]propyl}amino)hexyl]-6,7-dihydro-5H-benzo[7]annulen-3-ol], in the assay on uterus, the inhibition in vivo at 0.3 mg/kg was 23%. Besides, the pIC50 at oestrogen receptor (ER) was 7.62. For the compound `CN(CCCCCCC1=C(c2ccc(F)c(F)c2)CCCc2cc(O)ccc21)CCCS(=O)(=O)CCCC(F)(F)F` [Example 23, 8-(3,4-Difluorophenyl)-9-[6-(methyl{3-[(4,4,4-trifluorobutyl)sulphonyl]propyl}amino)hexyl]-6,7-dihydro-5H-benzo[7]annulen-3-ol], the inhibition in vivo at 0.3 mg/kg in the assay on uterus came to 33%. For the same compound, the pIC50 on oestrogen receptor (ER) was 7.66. Taken in the same sequence, the figures for `CC(C)(O)CN(CCCCCCC1=C(c2ccc(F)c(F)c2)CCCc2cc(O)ccc21)CCCS(=O)(=O)CCC(F)(F)F` [Example 27, 8-(3,4-Difluorophenyl)-9-{6-[(2-hydroxy-2-methylpropyl){3-[(3,3,3-trifluoropropyl)sulphonyl]propyl}amino]hexyl}-6,7-dihydro-5H-benzo[7]annulen-3-ol] were 10% and 7.46. For `CN(CCCCCCC1=C(c2ccc(F)cc2F)CCCc2cc(O)ccc21)CCCCS(=O)(=O)CCC(F)(F)F` [Example 131, 8-(2,4-Difluorophenyl)-9-[6-(methyl{4-[(3,3,3-trifluoropropyl)sulphonyl]butyl}amino)hexyl]-6,7-dihydro-5H-benzo[7]annulen-3-ol], the pIC50 at oestrogen receptor (ER) is 8.52. Same read-out and setting: under `CN(CCCCCCC1=C(c2ccc(F)cc2F)CCCc2cc(O)ccc21)CCCCS(=O)(=O)CCCC(F)(F)F` [Example 132, 8-(2,4-Difluorophenyl)-9-[6-(methyl{4-[(4,4,4-trifluorobutyl)sulphonyl]butyl}amino)hexyl]-6,7-dihydro-5H-benzo[7]annulen-3-ol] stands 8.40; under `CN(CCCCCCC1=C(c2ccc(F)cc2F)CCCc2cc(O)ccc21)CCCCCS(=O)(=O)CCC(F)(F)F` [Example 133, 8-(2,4-Difluorophenyl)-9-[6-(methyl{5-[(3,3,3-trifluoropropyl)sulphonyl]pentyl}amino)hexyl]-6,7-dihydro-5H-benzo[7]annulen-3-ol], 8.15.

Consider `CN(CCCCCCC1=C(c2ccc(F)cc2F)CCCc2cc(O)ccc21)CCCS(=O)(=O)CCCC(F)(F)F` [Example 134, 8-(2,4-Difluorophenyl)-9-[6-(methyl{3-[(4,4,4-trifluorobutyl)sulphonyl]propyl}amino)hexyl]-6,7-dihydro-5H-benzo[7]annulen-3-ol], for which, on oestrogen receptor (ER), the negative logarithm of the IC50 (pIC50) was 8.30.

As for `CN(CCCCCCC1=C(c2ccc(F)cc2F)CCCc2cc(O)ccc21)CCCS(=O)(=O)CCCCCC(F)(F)F` [Example 135, 8-(2,4-Difluorophenyl)-9-[6-(methyl{3-[(6,6,6-trifluorohexyl)sulphonyl]propyl}amino)hexyl]-6,7-dihydro-5H-benzo[7]annulen-3-ol], the pIC50 at oestrogen receptor (ER) is 8.30. Same read-out and setting: for `[2H]C([2H])([2H])N(CCCCCCC1=C(c2ccc(F)cc2F)CCCc2cc(O)ccc21)CCCS(=O)(=O)CCCCC(F)(F)F` [Example 136, 8-(2,4-Difluorophenyl)-9-{6-[(^2H3)methyl{3-[(5,5,5-trifluoropentyl)sulphonyl]propyl}amino]hexyl}-6,7-dihydro-5H-benzo[7]annulen-3-ol] the value was 8.05; for `[2H]C([2H])([2H])N(CCCCCCC1=C(c2cc(F)ccc2F)CCCc2cc(O)ccc21)CCCS(=O)(=O)CCCCC(F)(F)F` [Example 137, 8-(2,5-Difluorophenyl)-9-{6-[(^2H3)methyl{3-[(5,5,5-trifluoropentyl)sulphonyl]propyl}amino]hexyl}-6,7-dihydro-5H-benzo[7]annulen-3-ol], 8.22. Consider `O=S(=O)(CCCCN(CCO)CCCCCCC1=C(c2ccc(F)cc2)CCCc2cc(O)c(F)cc21)CCC(F)(C(F)(F)F)C(F)(F)F` [Example 138, 2-Fluoro-8-(4-fluorophenyl)-9-{6-[(2-hydroxyethyl)(4-{[3,4,4,4-tetrafluoro-3-(trifluoromethyl)butyl]sulphonyl}butyl)amino]hexyl}-6,7-dihydro-5H-benzo[7]annulen-3-ol], for which the pIC50 at oestrogen receptor (ER) is 7.68. In the case of `[2H]C([2H])([2H])N(CCCCCCC1=C(c2ccc(F)cc2)CCCc2cc(O)ccc21)CCCS(=O)(=O)CCCCC(F)(F)F` [Example 139, 8-(4-Fluorophenyl)-9-{6-[(^2H3)methyl{3-[(5,5,5-trifluoropentyl)sulphonyl]propyl}amino]hexyl}-6,7-dihydro-5H-benzo[7]annulen-3-ol], the negative-log IC50 (pIC50) on oestrogen receptor (ER) was 8.15. Consider `CN(CCCCCCC1=C(c2ccc(F)cc2)CCCc2cc(O)c(F)cc21)CCCS(=O)(=O)CCCCCC(F)(F)F` [Example 140, 2-Fluoro-8-(4-fluorophenyl)-9-[6-(methyl{3-[(6,6,6-trifluorohexyl)sulphonyl]propyl}amino)hexyl]-6,7-dihydro-5H-benzo[7]annulen-3-ol], for which the pIC50 at oestrogen receptor (ER) was 8.40.

For the compound `N#CCN(CCCCCCC1=C(c2ccc(F)cc2)CCCc2cc(O)ccc21)CCCS(=O)(=O)CCCCC(F)(F)F` [Example 141, ({6-[8-(4-Fluorophenyl)-3-hydroxy-6,7-dihydro-5H-benzo[7]annulen-9-yl]hexyl}{3-[(5,5,5-trifluoropentyl)sulphonyl]propyl}amino)acetonitrile], at oestrogen receptor (ER), the pIC50 was 7.68.

In the case of `CN(CCCCCCC1=C(c2cc(F)ccc2F)CCCc2cc(O)ccc21)CCCCS(=O)(=O)CCCC(F)(F)F` [Example 143, 8-(2,5-Difluorophenyl)-9-[6-(methyl{4-[(4,4,4-trifluorobutyl)sulphonyl]butyl}amino)hexyl]-6,7-dihydro-5H-benzo[7]annulen-3-ol], the pIC50 on oestrogen receptor (ER) was 8.05. The same measure, in the same setting: for `CN(CCCCCCC1=C(c2ccc(F)cc2)CCCc2cc(O)c(F)cc21)CCCCS(=O)(=O)C1CCC(F)(F)CC1` [Example 144, 9-{6-[{4-[(4,4-Difluorocyclohexyl)sulphonyl]butyl}(methyl)amino]hexyl}-2-fluoro-8-(4-fluorophenyl)-6,7-dihydro-5H-benzo[7]annulen-3-ol] the value was 8.00.

As for `CN(CCCCCCC1=C(c2ccc(F)cc2F)CCCc2cc(O)ccc21)CCCS(=O)(=O)CCC(F)(F)C(F)(F)F` [Example 145, 8-(2,4-Difluorophenyl)-9-[6-(methyl{3-[(3,3,4,4,4-pentafluorobutyl)sulphonyl]propyl}amino)hexyl]-6,7-dihydro-5H-benzo[7]annulen-3-ol], the pIC50 at oestrogen receptor (ER) is 7.66. Same read-out and setting: for `CN(CCCCCCC1=C(c2ccc(F)cc2F)CCCc2cc(O)ccc21)CCCCS(=O)(=O)CCC(F)(F)C(F)(F)F` [Example 146, 8-(2,4-Difluorophenyl)-9-[6-(methyl{4-[(3,3,4,4,4-pentafluorobutyl)sulphonyl]-butyl}amino)hexyl]-6,7-dihydro-5H-benzo[7]annulen-3-ol] the value was 7.82; for `CN(CCCCCCC1=C(c2ccc(F)cc2F)CCCc2cc(O)ccc21)CCCCS(=O)(=O)CCCC(F)(F)C(F)(F)F` [Example 147, 8-(2,4-Difluorophenyl)-9-[6-(methyl{4-[(4,4,5,5,5-pentafluoropentyl)sulphonyl]butyl}amino)hexyl]-6,7-dihydro-5H-benzo[7]annulen-3-ol], 7.49; for `CN(CCCCCCC1=C(c2ccc(F)cc2)CCCc2cc(O)ccc21)CCCS(=O)(=O)CCCCCC(F)(F)F` [Example 148, 8-(4-Fluorophenyl)-9-[6-(methyl{3-[(6,6,6-trifluorohexyl)sulphonyl]propyl}amino)hexyl]-6,7-dihydro-5H-benzo[7]annulen-3-ol], 7.77. Turning to `CN(CCCCCCC1=C(c2ccc(F)cc2)CCCc2c1ccc(O)c2F)CCCS(=O)(=O)CCCC(F)(F)F` [Example 149, 4-Fluoro-8-(4-fluorophenyl)-9-[6-(methyl{3-[(4,4,4-trifluorobutyl)sulphonyl]propyl}amino)hexyl]-6,7-dihydro-5H-benzo[7]annulen-3-ol], on oestrogen receptor (ER), the pIC50 is 7.85.
